Source: patent US12213482B2, “Fungicide enhancers effective for treating plants infected with fungal pathogens” (Board of Regents, The University of Texas System, priority 2015, dated 2025)

Experiments:
[1] = system: Mycosphaerella graminicola isolate FLU4-02; test: Fungicide sensitivity testing by OD in 96 well plates, epoxiconazole plus enhancers; type: cell-based; conditions: Zymoseptoria tritici, Enhancer Concentration 0 μg ml^−1 (epoxiconazole alone; one value per enhancer series)
[2] = system: Septoria tritici isolate G3-03; test: Fungicide sensitivity testing by OD in 96 well plates, fungicides plus Enhancer A.I.1; type: cell-based
[3] = Enhancer A.I.1 Concentration 0 μg ml^−1
[4] = Enhancer A.I.1 Concentration 0.003 μg ml^−1
[5] = Enhancer A.I.1 Concentration 0.016 μg ml^−1
[6] = Enhancer A.I.1 Concentration 0.08 μg ml^−1
[7] = Enhancer A.I.1 Concentration 0.4 μg ml^−1
[8] = Enhancer A.I.1 Concentration 2.0 μg ml^−1
[9] = Enhancer A.I.1 Concentration 10 μg ml^−1

Row | SMILES | EC50 [1] | EC50 of the fungicide [2, 3] | EC50 of the fungicide [2, 4] | EC50 of the fungicide [2, 5] | EC50 of the fungicide [2, 6] | EC50 of the fungicide [2, 7] | EC50 of the fungicide [2, 8] | EC50 of the fungicide [2, 9]
1 | Fc1ccc([C@]2(Cn3cncn3)O[C@H]2c2ccccc2Cl)cc1 (racemic) [Epoxiconazole] | 0.091 µg/mL | 0.142 µg/mL | 0.142 µg/mL | 0.141 µg/mL | 0.145 µg/mL | 0.06 µg/mL | 0.008 µg/mL | 0.004 µg/mL
2 | CO/C=C(/C(=O)OC)c1ccccc1Oc1cc(Oc2ccccc2C#N)ncn1 [Azoxystrobin] | – | 7.210 µg/mL | 7.339 µg/mL | 7.071 µg/mL | 6.914 µg/mL | 6.958 µg/mL | 5.157 µg/mL | 2.816 µg/mL
3 | COC(=O)Nc1nc2ccccc2[nH]1 [Carbendazim] | – | >50 µg/mL | >50 µg/mL | >50 µg/mL | >50 µg/mL | >50 µg/mL | >50 µg/mL | >50 µg/mL
4 | N#Cc1c(Cl)c(Cl)c(Cl)c(C#N)c1Cl [Chlorothalonil] | – | 0.370 µg/mL | 0.369 µg/mL | 0.357 µg/mL | 0.369 µg/mL | 0.335 µg/mL | 0.36 µg/mL | 0.364 µg/mL
5 | Cc1cc(C2CC2)nc(Nc2ccccc2)n1 [Cyprodinil] | – | 3.055 µg/mL | 3.135 µg/mL | 2.995 µg/mL | 2.838 µg/mL | 3.244 µg/mL | 4.046 µg/mL | 4.220 µg/mL
